# US7981882B2, “6-N-linked heterocycle-substituted 2,3,4,5-tetrahydro-1H-benzo[d]azepines as 5-HT2C receptor agonists” (Eli Lilly and Company, priority 2005, dated 2011)
# What was measured:
# Wistar rats [1] = assay: Schedule-induced polydipsia; format: in vivo, rat
# From the text: Schedule-Induced Polydipsia
# Food-deprived rats exposed to intermittent presentations of food will drink amounts of water that are far in excess of their normal daily intake and in excess of their intake when given all of their food at one time (Falk J L. “Production of polydipsia in normal rats by an intermittent food schedule”, Science 133: 195-196, (1961)). This excessive behavior is persistent and has been used to model OCD.
# Maintain Wistar rats on a food restricted diet (to maintain 85% free feeding weight), but with free access to water. Train the rats in a behavioral testing chamber to press a lever to receive a food pellet under a fixed interval schedule, such that the rats are rewarded with a 45 mg food pellet the first time they press a lever after a 120 second interval has elapsed. The fixed interval is then reset to 120 seconds and the process repeated. Thus, during a 90 min. test session, the rats can earn a maximum of 45 pellets. The behavioral chamber is also equipped with a water bottle that is weighed before and after the session to determine the amount of water consumed.
# Administer test compounds on Tuesdays and Fridays. […] Compare the rates of lever pressing and water consumption for each animal's performance during sessions after test compound treatment with that animal's performance during control sessions, expressed as a percent of the control rate. […]
# male NIH Swiss mice [2] = assay: Nestlet shredding; format: in vivo, mouse; conditions: 30 min test
# From the text: Mice naturally will construct nests of material available in their living environment. Since this behavior is obsessive in nature, it has been used to model OCD (Xia Li, Denise Morrow and Jeffrey M. Witkin, “Decreases in nestlet shredding of mice by serotonin uptake inhibitors: comparison with marble burying”, Psychopharmacology, submitted Jul. 14, 2003). House experimentally-naïve male, NIH Swiss mice (Harlan Sprague-Dawley, Indianapolis, Ind.) weighing between 28-35 g in groups of 12 for at least three days prior to testing in a vivarium with a 12 h light/dark cycle. Conduct experiments during the light cycle in an experimental room with normal overhead fluorescent lighting. Dose mice with vehicle or test compound and after a specified pretreatment interval (generally 30 min.), place the mice individually in a 17×28×12 cm high plastic tub with about 5 mm sawdust shavings on the floor along with a pre-weighed multi-ply gauze pad (51 mm square). After 30 min., weigh the remainder of the gauze pad not removed by the mouse. Determine the weight of the gauze used for nestlet construction by subtraction. Compare the results for test compound treated mice to the results for vehicle control treated mice with Dunnett's test.
# Clinically effective OCD treatment standard compounds suppress nestlet shredding at doses that are devoid of motor-impairing effects as measured by the rotorod test. […]
# Wistar rats [3] = conditions: cited from earlier work
# male NIH Swiss mice [4] = conditions: cited from earlier work
# male NIH Swiss mice [5] = assay: Marble burying assay; format: in vivo, mouse; conditions: 30 min test, rotorod before
# From the text: Marble burying in mice has been used to model anxiety disorders including obsessive-compulsive disorders (OCD) due to ethological study of the behavior (e.g. Gyertyan I. “Analysis of the marble burying response: Marbles serve to measure digging rather than evoke burying”, Behavioural Pharmacology 6: 24-31, (1995)) and due to the pharmacological effects of clinical standards (c.f., Njung'E K. Handley S L. “Evaluation of marble-burying behavior as a model of anxiety”, Pharmacology, Biochemistry & Behavior. 38: 63-67, (1991)); Borsini F., Podhoma J., and Marazziti, D. “Do animal models of anxiety predict anxiolytic effects of antidepressants?”, Psychopharmacology 163: 121-141, (2002)).
# House experimentally-naïve male, NIH Swiss mice (Harlan Sprague-Dawley, Indianapolis, Ind.) weighing between 28-35 g in groups of 12 for at least three days prior to testing in a vivarium with 12 h light and dark cycles. Conduct experiments during the light cycle in a dimly lit experimental testing room. Dose mice with vehicle or test compound and, after a specified pretreatment interval (generally 30 min.), place each mouse individually on a rotorod (Ugo Basile 7650) operating at a speed of 6 revolutions/min. and observe for falling. […]
# Clinically effective standard compounds suppress marble burying at doses that are devoid of motor-impairing effects as measured on the rotorod. […]
smiles,measurement,setting,value
C[C@H](N)Cc1ccccc1 [d-amphetamine],Suppression of excessive drinking with co-administration of 5-HT2C antagonist,Wistar rats [1],not prevented by the 5HT2C receptor antagonist
same,Schedule-induced polydipsia (excessive drinking),Wistar rats [1]; 90 min session,decreases excessive drinking only at behaviorally stimulating doses
same,Nestlet shredding (with motor effects),male NIH Swiss mice [2],decreases nestlet shredding only at doses that produce motoric side effects
CN(C)CCCN1c2ccccc2CCc2ccc(Cl)cc21 [chlomipramine],Schedule-induced polydipsia (clinically effective OCD treatment standards),Wistar rats [3],"suppress schedule-induced polydipsia without producing notable changes in motor patterns, food intake, or behavior the following day"
CNCCC(Oc1ccc(C(F)(F)F)cc1)c1ccccc1 (stereo not shown) [fluoxetine],"Marble burying (clinical standards, literature)",male NIH Swiss mice [4],decrease burying
same,Schedule-induced polydipsia (clinically effective OCD treatment standards),Wistar rats [3],"suppress schedule-induced polydipsia without producing notable changes in motor patterns, food intake, or behavior the following day"
CN(C)CCCN1c2ccccc2Sc2ccc(Cl)cc21 [chlorpromazine],Marble burying behavior (with rotorod performance),male NIH Swiss mice [5],decrease marble burying only at doses that also disrupt rotorod performance
